Literature values as cited in patent US6500450B1, “Composition for treating migraine headaches” (priority 1998, dated 2002).
Structures can show the parent of a compound that is named as a salt.

Experiments:
[1] = tested on: patients with recurrent migraines; settings: 49 patients
[2] = tested on: moderate to severe migraine headaches
[3] = tested on: migraine occurrence in patients
migraine = settings: in vivo
[4] = 400 mg/day with breakfast for at least three months

For `CN1C[C@H](C(=O)N[C@]2(C)O[C@@]3(O)[C@@H]4CCCN4C(=O)[C@H](Cc4ccccc4)N3C2=O)C=C2c3cccc4[nH]cc(c34)C[C@H]21` [ergotamine, ergotamine tartrate], the “patients with complete headache relief within three hours of taking the drug” value (patients with migraine; 1-mg rectal suppository, patients with migraine) is given as 73%, the “consequence of frequent use” value (patients with migraine; frequent use of the drug) is given as “rebound headache” and the side effects (patients with migraine; human, in vivo) is given as “nausea, vomiting, abdominal pain, muscle cramps, and occasionally, distal paresthesias”.
For `Cc1cc2nc3c(=O)[nH]c(=O)nc-3n(C[C@H](O)[C@H](O)[C@H](O)CO)c2cc1C` [riboflavin], the side effects ([1]; 400 mg/day for at least three months) is given as “One patient stopped treatment because of gastric intolerance, but no other side effects were reported”, the “fall in the mean number of migraine attacks” value [1, 4] is given as 67% and the “improvement of migraine severity” value [1, 4] is given as 68%.
For `CNS(=O)(=O)Cc1ccc2[nH]cc(CCN(C)C)c2c1` [sumatriptan], the “reduction of the intensity of moderate to severe migraine headaches” value ([2]; dose of six milligrams, injectable) is given as 70% and the side effects ([2]; stated for this type of drug) is given as “distal paresthesias, tingling, heaviness, and a sensation of pressure”.
For `CC[C@@H](CO)NC(=O)[C@@H]1C=C2c3cccc4c3c(cn4C)C[C@H]2N(C)C1` [methysergide, methysergide maleate], the “patients in whom migraine occurrence is reduced by more than half” value ([3]; 6 mg dose, migraine prophylaxis) is given as 60% and the “adverse effect of long-term use” value ([3]; long-term use) is given as “associated with retroperitoneal fibrosis”.
For `CC(C)NCC(O)COc1cccc2ccccc12` (stereo not drawn) [Propranolol], the “efficacy in migraine prophylaxis” value (migraine) is given as “effective” and the side effects (migraine) is given as “fatigue, depression, impotence, insomnia, dizziness, and cold extremities”.
